Structures are written as SMILES. Some results are limits rather than exact numbers.

The subject of assay [1] is Human non-small cell lung cancer cell line NCI-H1975. The assay is described as follows: Inhibition of H1975 cell proliferation (CellTiter luminescent viability). To be noted: Table ID1, EGFR inhibitor-based; H1975, 96 hours; read-out: Inhibitory activity (IC50, nM) on tumor cell proliferation, H1975. The assay is classed as cell-based. The procedure: The tumor cells used herein were cultured in a cell culture medium listed in table 3 at 37 °C in an incubator with 5% CO2. Prior to experimentation, all cell lines used were correctly identified by STR profiling, and tested negative for mycoplasma contamination using a mycoplasma detection kit through routine screenings.
The IC50 values of the compounds of the present disclosure (including the compounds in Table 1, Table 2, and Examples 1-468) were determined using the CellTiter-Meiluncell Luminescent Cell Viability Assay Kit from Dalian Meilun Biotech Co., Ltd. The detailed procedure is as follows: Tumor cells were seeded in 96-well cell culture plates at the densities specified in Table 4. On the following day, the test compounds of the present disclosure were subjected to serial dilution. The dilution can be performed according to one of the following two methods: • (1) The first dilution method: The test compounds of the present disclosure (including the compounds in Table 1, Table 2, and Examples 1-468) were subjected to 5-fold serial dilutions starting from a highest concentration of 2000 μM, resulting in a total of 9 concentrations from high to low (2000, 400, 80, 16, 3.2, 0.64, 0.128, 0.0256, 0.00512 μM). Subsequently, 0.5 μL of the test compound dilution was transferred into the 96-well plate containing the cells, with each well containing 100 μL of cell culture medium. […] Into the 96-well plate, the diluted test compounds and corresponding detection reagents were added, resulting in final test compound concentrations of 500 nM and 10 nM, respectively. The experimental procedure is described below using the diluted 2 μM test compound as an example.
0.5 μL of the aforementioned diluted compound of the present disclosure (including the compounds in Table 1, Table 2, and Examples 1-468) was added to the seeded cells in 100 μL of medium, yielding a final test compound concentration of 10 nM. After the cells were treated with the compounds of the present disclosure for a specified period, the cell viability assay reagent was added to the culture medium according to the kit's instructions to determine cell viability. […] All controls were treated using the same procedure as the compounds of the present disclosure. The growth inhibition curves for the compounds of the present disclosure were plotted using Prism GraphPad software, and the IC50 values were calculated therefrom.

Assay [2] has as its target T1, human Cereblon WT GST-tagged protein (CRBN) (Homo sapiens, UniProt Q96SW2).
T1 construct: purchased CISBIO 64BDCRBNPEH
The assay is described as follows: CRBN binding by HTRF (Cereblon binding kit). To be noted: for inhibition at 0.5 µM: read-out: Inhibition Rate at 0.5 μM (%); for inhibition at 2 µM: read-out: Inhibition Rate at 2 μM (%). The method in brief: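 GST-tagged human Cereblon WT was incubated 3 h at room temperature with compound, thalidomide-Re tracer and Eu anti-GST antibody. Final compound concentrations were 10 to 0.00064 µM (7 points) or 2 and 0.5 µM. Inhibition rate was calculated from HTRF 665/620 nm ratios versus solvent and blank controls.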
(Time-resolved FRET reads energy transfer from a long-lived donor to a nearby acceptor.)

Assay [3] addresses T2, EGFR (Homo sapiens, UniProt P00533).
T2 construct: L858R/T790M in cis, heterozygous with wild type), Western blot
The assay is described as follows: Western blot degradation of EGFR. The assay is classed as cell-based. To be noted: H1975 Cell; 24 hours. The procedure: Conventional Western blot assay was performed to evaluate the effects of the compounds of the present disclosure on the expression of target proteins in cells.
(1) Cell Seeding and Protein Harvesting: The selected cells were processed according to the cell seeding procedure and protein harvesting procedure in Table II-2.
(2) To the collected supernatant, 5×SDS sample loading buffer was added, followed by denaturation at 95 °C for 5 minutes. The denatured samples were then separated by SDS-PAGE electrophoresis on a polyacrylamide gel. Proteins were transferred to a nitrocellulose membrane (0.45 μm NC membrane), blocked with blocking buffer at room temperature for 1 hour, and subjected to antibody incubation and development procedures according to the antibody manufacturer's instructions (Cell Signaling Technology).
Half-Maximal Degradation Concentration value (the drug concentration required for degrading proteins by 50%, abbreviated as DC50) reads method: comparing the grayscale values of Western blot bands from drug-treated samples with those from blank DMSO-treated controls, and identifying the drug concentration range at which the grayscale value is half that of the DMSO-treated control bands.
DC50 values can be calculated using ImageJ software to measure grayscale values of Western blot bands from drug-treated samples. The concentration-response curve is fitted to estimate the drug concentration corresponding to half the grayscale value.
Target protein remaining (%) refers to the percentage of target protein remaining in cells after treatment with protein degrader compounds.
Calculation method for target protein remaining (%): Use ImageJ software to measure grayscale values of Western blot bands from drug (protein degrader)-treated samples. The grayscale value of drug-treated bands is divided by that of internal control protein bands, and the resulting quotient is normalized to obtain the relative percentage of remaining target protein after protein degrader treatment.
Target protein degradation rate (%)=1−target protein remaining (%).
On the technique in general: In western blotting, separated proteins are transferred to a membrane and probed.

T1 sequence (Q96SW2 whole entry): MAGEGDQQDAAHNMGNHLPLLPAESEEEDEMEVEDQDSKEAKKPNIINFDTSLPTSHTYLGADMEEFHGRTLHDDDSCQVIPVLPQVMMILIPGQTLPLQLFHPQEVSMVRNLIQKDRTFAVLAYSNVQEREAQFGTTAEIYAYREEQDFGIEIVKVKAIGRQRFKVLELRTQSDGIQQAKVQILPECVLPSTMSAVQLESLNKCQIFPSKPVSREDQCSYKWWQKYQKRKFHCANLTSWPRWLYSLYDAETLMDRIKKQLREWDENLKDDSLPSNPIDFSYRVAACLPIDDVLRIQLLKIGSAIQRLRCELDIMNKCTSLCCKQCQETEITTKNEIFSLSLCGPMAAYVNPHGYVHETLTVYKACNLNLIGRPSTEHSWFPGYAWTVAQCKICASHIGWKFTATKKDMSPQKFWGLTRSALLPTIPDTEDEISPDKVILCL
T2 sequence (P00533 25-1210): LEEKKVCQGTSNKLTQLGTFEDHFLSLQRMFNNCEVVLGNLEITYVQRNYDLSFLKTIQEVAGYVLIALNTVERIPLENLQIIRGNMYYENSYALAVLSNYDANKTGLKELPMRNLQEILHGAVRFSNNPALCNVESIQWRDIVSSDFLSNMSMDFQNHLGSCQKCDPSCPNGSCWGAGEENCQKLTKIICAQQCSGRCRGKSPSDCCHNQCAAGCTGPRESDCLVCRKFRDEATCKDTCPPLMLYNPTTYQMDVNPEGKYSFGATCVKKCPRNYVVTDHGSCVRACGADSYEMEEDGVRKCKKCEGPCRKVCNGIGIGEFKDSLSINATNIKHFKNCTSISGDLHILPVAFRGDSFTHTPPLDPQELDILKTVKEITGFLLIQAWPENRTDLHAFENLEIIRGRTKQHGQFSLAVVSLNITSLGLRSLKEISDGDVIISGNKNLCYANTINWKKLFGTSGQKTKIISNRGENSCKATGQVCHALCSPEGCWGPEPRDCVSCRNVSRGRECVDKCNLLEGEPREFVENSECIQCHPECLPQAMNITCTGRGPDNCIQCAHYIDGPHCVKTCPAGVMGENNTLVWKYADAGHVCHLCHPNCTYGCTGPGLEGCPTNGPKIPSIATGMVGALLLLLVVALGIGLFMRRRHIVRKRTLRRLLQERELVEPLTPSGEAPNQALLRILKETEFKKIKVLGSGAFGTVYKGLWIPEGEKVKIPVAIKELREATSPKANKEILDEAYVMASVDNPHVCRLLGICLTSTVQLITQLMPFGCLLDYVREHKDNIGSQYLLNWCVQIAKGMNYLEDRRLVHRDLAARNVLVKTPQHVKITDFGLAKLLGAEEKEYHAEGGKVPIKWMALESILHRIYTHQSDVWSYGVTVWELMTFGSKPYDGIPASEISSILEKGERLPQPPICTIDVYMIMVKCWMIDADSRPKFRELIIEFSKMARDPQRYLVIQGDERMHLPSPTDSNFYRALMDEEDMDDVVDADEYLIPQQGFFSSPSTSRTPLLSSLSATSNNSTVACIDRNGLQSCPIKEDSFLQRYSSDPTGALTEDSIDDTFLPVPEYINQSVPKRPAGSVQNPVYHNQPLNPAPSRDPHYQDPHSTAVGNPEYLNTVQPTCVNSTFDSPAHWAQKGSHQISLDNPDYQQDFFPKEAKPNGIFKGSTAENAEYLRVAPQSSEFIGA
T2 sequence (Q96SW2 whole entry partner): as the sequence (Q96SW2 whole entry) above

With `CN(Cc1ccc2c(c1)C(=O)N(N1CCC(=O)NC1=O)C2=O)C1CCN(c2ccc(-c3cc(F)c4c(c3)C(=O)N(C(C(=O)Nc3nccs3)c3ncn5c3CCC5)C4)cc2)CC1` (centres unmarked) [GT-05196, 2-(6,7-dihydro-5H-pyrrolo[1,2-c]imidazol-1-yl)-2-(6-(4-(4-(((2-(2,4-dioxotetrahydropyrimidin-1(2H)-yl)-1,3-dioxoisoindolin-5-yl)methyl)(methyl)amino)piperidin-1-yl)phenyl)-4-fluoro-1-oxoisoindolin-2-yl)-N-(thiazol-2-yl)acetamide], in assay [1], the IC50 lay in the range of 10 to 50 nM.

For `CN(Cc1ccc2c(c1)CN(N1CCC(=O)NC1=O)C2=O)C1CCN(c2ccc(Nc3ncc4nc(Nc5ccccc5)n(C5CCCC5)c4n3)cc2)CC1` [GT-05842, 1-(5-(((1-(4-((9-cyclopentyl-8-(phenylamino)-9H-purin-2-yl)amino)phenyl)piperidin-4-yl)(methyl)amino)methyl)-1-oxoisoindolin-2-yl)dihydropyrimidine-2,4 (1H,3H)-dione], in assay [2], the inhibition at 0.5 µM lay within 10 to 20% and the inhibition at 2 µM was in the range of 53 to 60%. Further, the “Degradation of substrate protein EGFR (substrate protein remaining %)” value in assay [3] is “A (0%≤substrate protein remaining %≤80%)”. `COC1CCN(c2nccc(Nc3cc4c(cn3)c(N3CCC(N(C)CC5CCN(c6cccc7c6C(=O)N(N6CCC(=O)NC6=O)C7=O)CC5)CC3)nn4C(C)C)n2)CC1` [GT-06119, 2-(2,4-dioxotetrahydropyrimidin-1(2H)-yl)-4-(4-(((1-(1-isopropyl-6-((2-(4-methoxypiperidin-1-yl)pyrimidin-4-yl)amino)-1H-pyrazolo[4,3-c]pyridin-3-yl)piperidin-4-yl)(methyl)amino)methyl)piperidin-1-yl)isoindoline-1,3-dione]: in assay [2], the inhibition at 0.5 µM is 10 to 20% and the inhibition at 2 µM lay within 53 to 60%. Moreover, the “Degradation of substrate protein EGFR (substrate protein remaining %)” value in assay [3] is “A (0%≤substrate protein remaining %≤80%)”. As for `O=C1CCN(N2C(=O)c3ccc(CN4CCN(c5ccc(-c6cc(F)c7c(c6)C(=O)N(C(C(=O)Nc6nccs6)c6ncn8c6CCC8)C7)cc5)CC4)cc3C2=O)C(=O)N1` (centres unmarked) [GT-06160, 2-(6,7-dihydro-5H-pyrrolo[1,2-c]imidazol-1-yl)-2-(6-(4-(4-((2-(2,4-dioxotetrahydropyrimidin-1(2H)-yl)-1,3-dioxoisoindolin-5-yl)methyl)piperazin-1-yl)phenyl)-4-fluoro-1-oxoisoindolin-2-yl)-N-(thiazol-2-yl)acetamide], the IC50 in assay [1] is 100 to 130 nM. Same read-out and setting: in the case of `O=C1CCN(N2C(=O)c3cccc(N4CCC(CN5CCN(c6ccc(-c7cc(F)c8c(c7)C(=O)N(C(C(=O)Nc7nccs7)c7ncn9c7CCC9)C8)cc6)CC5)CC4)c3C2=O)C(=O)N1` (centres unmarked) [GT-06162, 2-(6,7-dihydro-5H-pyrrolo[1,2-c]imidazol-1-yl)-2-(6-(4-(4-((1-(2-(2,4-dioxotetrahydropyrimidin-1(2H)-yl)-1,3-dioxoisoindolin-4-yl)piperidin-4-yl)methyl)piperazin-1-yl)phenyl)-4-fluoro-1-oxoisoindolin-2-yl)-N-(thiazol-2-yl)acetamide] it was 10 to 50 nM; in that of `O=C1CCN(N2Cc3cc(CN4C[C@H]5C[C@@H]4CN5c4ccc(-c5cc(F)c6c(c5)C(=O)N(C(C(=O)Nc5nccs5)c5ncn7c5CCC7)C6)cc4)ccc3C2=O)C(=O)N1` (stereo partly drawn) [GT-06172, 2-(6,7-dihydro-5H-pyrrolo[1,2-c]imidazol-1-yl)-2-(6-(4-((1R,4R)-5-((2-(2,4-dioxotetrahydropyrimidin-1(2H)-yl)-1-oxoisoindolin-5-yl)methyl)-2,5-diazabicyclo[2.2.1]heptan-2-yl)phenyl)-4-fluoro-1-oxoisoindolin-2-yl)-N-(thiazol-2-yl)acetamide], less than 10 nM. As to `O=C1CCN(N2C(=O)c3ccc(CN4C[C@H]5C[C@@H]4CN5c4ccc(-c5cc(F)c6c(c5)C(=O)N(C(C(=O)Nc5nccs5)c5ncn7c5CCC7)C6)cc4)cc3C2=O)C(=O)N1` (stereo partly drawn) [GT-06173, 2-(6,7-dihydro-5H-pyrrolo[1,2-c]imidazol-1-yl)-2-(6-(4-((1R,4R)-5-((2-(2,4-dioxotetrahydropyrimidin-1(2H)-yl)-1,3-dioxoisoindolin-5-yl)methyl)-2,5-diazabicyclo[2.2.1]heptan-2-yl)phenyl)-4-fluoro-1-oxoisoindolin-2-yl)-N-(thiazol-2-yl)acetamide], in assay [1], the IC50 is 50 to 100 nM. For the molecule `O=C1CCN(N2C(=O)c3ccc(CN4CCN(C5CCN(c6ccc(-c7cc(F)c8c(c7)C(=O)N(C(C(=O)Nc7nccs7)c7ncn9c7CCC9)C8)cc6)CC5)CC4)cc3C2=O)C(=O)N1` (centres unmarked) [GT-06242, 2-(6,7-dihydro-5H-pyrrolo[1,2-c]imidazol-1-yl)-2-(6-(4-(4-(4-((2-(2,4-dioxotetrahydropyrimidin-1(2H)-yl)-1,3-dioxoisoindolin-5-yl)methyl)piperazin-1-yl)piperidin-1-yl)phenyl)-4-fluoro-1-oxoisoindolin-2-yl)-N-(thiazol-2-yl)acetamide], the IC50 in assay [1] is 50 to 100 nM. On to `O=C1CCN(N2Cc3cc(CN4C5CCC4CN(c4ccc(-c6cc(F)c7c(c6)C(=O)N(C(C(=O)Nc6nccs6)c6ncn8c6CCC8)C7)cc4)C5)ccc3C2=O)C(=O)N1` (centres unmarked) [GT-06250, 2-(6,7-dihydro-5H-pyrrolo[1,2-c]imidazol-1-yl)-2-(6-(4-(8-((2-(2,4-dioxotetrahydropyrimidin-1(2H)-yl)-1-oxoisoindolin-5-yl)methyl)-3,8-diazabicyclo[3.2.1]octan-3-yl)phenyl)-4-fluoro-1-oxoisoindolin-2-yl)-N-(thiazol-2-yl)acetamide], for which the IC50 in assay [1] was less than 10 nM. In the case of `O=C1CCN(N2C(=O)c3ccc(CN4C5CCC4CN(c4ccc(-c6cc(F)c7c(c6)C(=O)N(C(C(=O)Nc6nccs6)c6ncn8c6CCC8)C7)cc4)C5)cc3C2=O)C(=O)N1` (centres unmarked) [GT-06251, 2-(6,7-dihydro-5H-pyrrolo[1,2-c]imidazol-1-yl)-2-(6-(4-(8-((2-(2,4-dioxotetrahydropyrimidin-1(2H)-yl)-1,3-dioxoisoindolin-5-yl)methyl)-3,8-diazabicyclo[3.2.1]octan-3-yl)phenyl)-4-fluoro-1-oxoisoindolin-2-yl)-N-(thiazol-2-yl)acetamide], the IC50 in assay [1] was in the range of 100 to 130 nM. With `O=C1CCN(N2C(=O)c3ccc(CN4CCN(C5CCN(c6ccc(-c7cc(F)c8c(c7)C(=O)N(C(C(=O)Nc7nccs7)c7ncn9c7CCC9)C8)cc6)CC5(F)F)CC4)cc3C2=O)C(=O)N1` (centres unmarked) [GT-06316, 2-(6,7-dihydro-5H-pyrrolo[1,2-c]imidazol-1-yl)-2-(6-(4-(4-(4-((2-(2,4-dioxotetrahydropyrimidin-1(2H)-yl)-1,3-dioxoisoindolin-5-yl)methyl)piperazin-1-yl)-3,3-difluoropiperidin-1-yl)phenyl)-4-fluoro-1-oxoisoindolin-2-yl)-N-(thiazol-2-yl)acetamide], the IC50 in assay [1] was in the range of 50 to 100 nM.

Regarding `CN(C)C/C=C/C(=O)Nc1cc2c(Nc3ccc(F)c(Cl)c3)ncnc2cc1O[C@H]1CCOC1` [afatinib, Afatinib, reference compound], the IC50 in assay [1] lay in the range of 130 to 200 nM. For the molecule `C#Cc1cccc(Nc2ncnc3cc(OCCOC)c(OCCOC)cc23)c1` [erlotinib, Erlotinib, reference compound], the IC50 in assay [1] lay in the range of 1000 to 5000 nM.

What is called inhibition is how much of the control response was suppressed.
